Measurements reported in ChEMBL document CHEMBL3508574 (2016).

Assays:
[1] = Cmax of active HMG-CoA reductase inhibitor L-654,969 following administration of simvastatin tablet at 40 mg dose level in hypercholesterolemic patients; assay type: ADME, organism-based, Plasma; settings: human, in vivo, po
[2] = Cmax of active HMG-CoA reductase inhibitor L-654,969 following administration of simvastatin tablet at 80 mg dose level in hypercholesterolemic patients; assay type: ADME, organism-based, Plasma; settings: human, in vivo, po
[3] = Cmax of active HMG-CoA reductase inhibitor L-654,969 following administration of simvastatin tablet at 160 mg dose level in hypercholesterolemic patients; assay type: ADME, organism-based, Plasma; settings: human, in vivo, po
[4] = Tmax of active HMG-CoA reductase inhibitor L-654,969 following administration of simvastatin tablet at 40 mg dose level in hypercholesterolemic patients; assay type: ADME, organism-based, Plasma; settings: human, in vivo, po
[5] = Tmax of active HMG-CoA reductase inhibitor L-654,969 following administration of simvastatin tablet at 80 mg dose level in hypercholesterolemic patients; assay type: ADME, organism-based, Plasma; settings: human, in vivo, po
[6] = Tmax of active HMG-CoA reductase inhibitor L-654,969 following administration of simvastatin tablet at 160 mg dose level in hypercholesterolemic patients; assay type: ADME, organism-based, Plasma; settings: human, in vivo, po
[7] = AUC of active HMG-CoA reductase inhibitor L-654,969 following administration of simvastatin tablet at 40 mg dose level in hypercholesterolemic patients; assay type: ADME, organism-based, Plasma; settings: human, in vivo, po
[8] = AUC of active HMG-CoA reductase inhibitor L-654,969 following administration of simvastatin tablet at 80 mg dose level in hypercholesterolemic patients; assay type: ADME, organism-based, Plasma; settings: human, in vivo, po
[9] = AUC of active HMG-CoA reductase inhibitor L-654,969 following administration of simvastatin tablet at 160 mg dose level in hypercholesterolemic patients; assay type: ADME, organism-based, Plasma; settings: human, in vivo, po
[10] = Bioavailability of active beta-hydroxy acid form of simvastatin following oral administration of simvastatin in rat; assay type: ADME, organism-based; settings: in vivo
[11] = Bioavailability of active beta-hydroxy acid form of simvastatin following oral administration of simvastatin in dog; assay type: ADME, organism-based, Canis lupus familiaris; settings: in vivo
[12] = Bioavailability of active beta-hydroxy acid form of simvastatin following oral administration of simvastatin in human; assay type: ADME, organism-based; settings: in vivo
[13] = Hepatic extraction of active beta-hydroxy acid form of simvastatin following oral administration of simvastatin in rat; assay type: ADME, organism-based, Liver; settings: in vivo
[14] = Hepatic extraction of active beta-hydroxy acid form of simvastatin following oral administration of simvastatin in dog; assay type: ADME, organism-based, Canis lupus familiaris, Liver; settings: in vivo
[15] = Hepatic extraction of active beta-hydroxy acid form of simvastatin following oral administration of simvastatin in human; assay type: ADME, organism-based, Liver; settings: in vivo
[16] = Extrahepatic tissue penetration of active beta-hydroxy acid form of simvastatin following oral administration of simvastatin in rat; assay type: ADME, organism-based; settings: in vivo
[17] = Extrahepatic tissue penetration of active beta-hydroxy acid form of simvastatin following oral administration of simvastatin in dog; assay type: ADME, organism-based, Canis lupus familiaris; settings: in vivo
[18] = Extrahepatic tissue penetration of active beta-hydroxy acid form of simvastatin following oral administration of simvastatin in human; assay type: ADME, organism-based; settings: in vivo
[19] = Extensive biliary excretion of active beta-hydroxy acid form of simvastatin following oral administration of simvastatin in rat; assay type: ADME, organism-based, Bile; settings: in vivo
[20] = Extensive biliary excretion of active beta-hydroxy acid form of simvastatin following oral administration of simvastatin in dog; assay type: ADME, organism-based, Canis lupus familiaris, Bile; settings: in vivo
[21] = Extensive biliary excretion of active beta-hydroxy acid form of simvastatin following oral administration of simvastatin in human; assay type: ADME, organism-based, Bile; settings: in vivo
Canis lupus familiaris = experiment: Plasma protein binding of simvastatin acid following oral dose of simvastatin at 2 mg.Kg-1 level in dog; assay type: organism-based; design: dose 2 mg.Kg-1, dosed compound id 2.4681e+06, dosed compound name, dose level, study doses mg.Kg-1
Homo sapiens = experiment: Plasma protein binding of simvastatin acid following oral dose of simvastatin at […] level in human; assay type: organism-based; design: dose 40 mg, dosed compound id 2.4681e+06, dosed compound name, dose level, study doses mg
[22] = Mean AUC (0-t) of simvastatin acid following administration of simvastatin 80 mg orally disintegrating tablet in healthy human; assay type: ADME, organism-based, Plasma; settings: in vivo, po
[23] = Mean AUC (0-t) of simvastatin acid following administration of reference product Zocor 80 mg tablet in healthy human; assay type: ADME, organism-based, Plasma; settings: in vivo, po
[24] = Mean AUC (0-infinity) of simvastatin acid following administration of simvastatin 80 mg orally disintegrating tablet in healthy human; assay type: ADME, organism-based, Plasma; settings: in vivo, po
[25] = Mean AUC (0-infinity) of simvastatin acid following administration of reference product Zocor 80 mg tablet in healthy human; assay type: ADME, organism-based, Plasma; settings: in vivo, po
[26] = Mean Cmax of simvastatin acid following administration of simvastatin 80 mg orally disintegrating tablet in healthy human; assay type: ADME, organism-based, Plasma; settings: in vivo, po
[27] = Mean Cmax of simvastatin acid following administration of reference product Zocor 80 mg tablet in healthy human; assay type: ADME, organism-based, Plasma; settings: in vivo, po
[28] = Mean Tmax of simvastatin acid following administration of simvastatin 80 mg orally disintegrating tablet in healthy human; assay type: ADME, organism-based, Plasma; settings: in vivo, po
[29] = Mean Tmax of simvastatin acid following administration of reference product Zocor 80 mg tablet in healthy human; assay type: ADME, organism-based, Plasma; settings: in vivo, po
[30] = Mean elimination rate constant of simvastatin acid following administration of simvastatin 80 mg orally disintegrating tablet in healthy human; assay type: ADME, organism-based, Plasma; settings: in vivo, po
[31] = Mean elimination rate constant of simvastatin acid following administration of reference product Zocor 80 mg tablet in healthy human; assay type: ADME, organism-based, Plasma; settings: in vivo, po
[32] = Mean elimination half-life of simvastatin acid following administration of simvastatin 80 mg orally disintegrating tablet in healthy human; assay type: ADME, organism-based, Plasma; settings: in vivo, po
[33] = Mean elimination half-life of simvastatin acid following administration of reference product Zocor 80 mg tablet in healthy human; assay type: ADME, organism-based, Plasma; settings: in vivo, po

SMILES: CCC(C)(C)C(=O)O[C@H]1C[C@@H](C)C=C2C=C[C@H](C)[C@H](CC[C@@H](O)C[C@@H](O)CC(=O)O)[C@H]21 [TENIVASTATIN]
- Cmax [1]: 21 ng.eq.ml-1
- Cmax [2]: 50 ng.eq.ml-1
- Cmax [3]: 138 ng.eq.ml-1
- Tmax [4]: 1.8 h
- Tmax [5]: 1.8 h
- Tmax [6]: 1.8 h
- AUC [7]: 120 ng.eq.h.ml-1
- AUC [8]: 263 ng.eq.h.ml-1
- AUC [9]: 668 ng.eq.h.ml-1
- F [10]: The active beta-hydroxyacid form of simvastatin is poorly bioavailable in rats
- F [11]: The active beta-hydroxyacid form of simvastatin is poorly bioavailable in dogs
- F [12]: The active beta-hydroxyacid form of simvastatin is poorly bioavailable in humans
- Hepatic extraction [13]: VALUE = Hepatic extraction of active beta-hydroxyacid form of simvastatin is high
- Hepatic extraction [14]: VALUE = Hepatic extraction of active beta-hydroxyacid form of simvastatin is high
- Hepatic extraction [15]: VALUE = Hepatic extraction of active beta-hydroxyacid form of simvastatin is high
- Compound recovery [16]: VALUE = Extrahepatic tissue penetration of active beta-hydroxyacid form of simvastatin is relatively poor
- Compound recovery [17]: VALUE = Extrahepatic tissue penetration of active beta-hydroxyacid form of simvastatin is relatively poor
- Compound recovery [18]: VALUE = Extrahepatic tissue penetration of active beta-hydroxyacid form of simvastatin is relatively poor
- Compound recovery [19]: OUTCOME = Observed, VALUE = Biliary excretion of active beta-hydroxyacid form of simvastatin is extensive
- Compound recovery [20]: OUTCOME = Observed, VALUE = Biliary excretion of active beta-hydroxyacid form of simvastatin is extensive
- Compound recovery [21]: OUTCOME = Observed, VALUE = Biliary excretion of active beta-hydroxyacid form of simvastatin is extensive
- PPB (Canis lupus familiaris): 93%
- PPB (Homo sapiens): 93%
- AUC(0-t) [22]: 37.67 ng·h/mL
- AUC(0-t) [23]: 36.61 ng·h/mL
- AUC (0-infinity) [24]: 41.54 ng·h/mL
- AUC (0-infinity) [25]: 47.76 ng·h/mL
- Cmax [26]: 4.5 ng/mL
- Cmax [27]: 3.88 ng/mL
- Tmax [28]: 4.42 h
- Tmax [29]: 4.35 h
- Kel [30]: 0.1554 h⁻¹
- Kel [31]: 0.1357 h⁻¹
- t1/2 [32]: 5.95 h
- t1/2 [33]: 8.67 h
